{"source": "patent US11016100B2", "about": "“Methods for identifying modulators of ion channels” (X-Body, Inc., priority 2007, dated 2021)", "system": "parental CHO cells", "conditions": "parental CHO cells lacking hERG ion channels; potassium-free starvation buffer; FIG. 3", "description": "This protocol employs potassium free starvation buffer to depolarize cells and thereby open ion channels such that screening ion channel modulators is possible. Colorimetric resonant reflectance biosensor plates were washed with 1×PBS for hydration baseline for 3 to 5 minutes. A PWV was determined for each of the wells. […] The plates were coated with 25.0 μl/well of fibronectin for 2 hrs at room temperature. The plates were blocked for 1 hour at room temperature or overnight at 4° C. by addition of 25.0 μl ovalbumin or BSA in PBS to the wells previously coated with fibronectin.\nStarvation buffers were prepared with and without potassium. For 500.0 ml potassium-free starvation buffer the following reagents were used: 25 ml of 3M NaCl for 150 mM NaCl final; 10.0 ml for 20 mM HEPES; 1.0 ml for 2 mM calcium chloride; 0.5 ml for 2 mM magnesium chloride; 1.0 ml for 5 mM D-(+)-glucose; up to 500.0 ml with H2O HPLC. Potassium starvation buffer is prepared the same as above, but with 2 mM KCl added. […]\n20.0 μl of potassium-containing starvation buffer was added to each well. […] The average number of cells/well was determined. […]\nPWVs are taken for the biosensor plates for 3 to 5 minutes or until a stable read of less than 1-2 pm change/minute is attained. […]", "data": [{"smiles": "COc1cc(N)c(Cl)cc1C(=O)NC1CCN(CCCOc2ccc(F)cc2)CC1OC", "note": "(stereo not shown) [Cisapride monohydrate]", "values": [{"measurement": "effect of the inhibitors on cell swelling in parental CHO cells (PWV)", "result": "little to no effect"}]}]}
